Data published in ChEMBL document CHEMBL1157811, “Synthesis, anticoagulant and PIVKA-II induced by new 4-hydroxycoumarin derivatives” (Bioorg Med Chem, 2010).
Activity calls are given as the source filed them. The rule behind the calls is not given here.

Experiments:
[1] = test system: Mus musculus; experiment: Ex vivo anticoagulant activity in albino mouse assessed as blood clotting time at 150 mg/kg, po administered daily for 3 successive days measured after 24 hrs of last dose; format: functional
[2] = Toxicity in po dosed albino mouse assessed as mortality administered daily for 3 successive days; format: organism-based; conditions: in vivo
[3] = test system: Mus musculus; experiment: Ex vivo anticoagulant activity in albino mouse assessed as prothrombin time at 150 mg/kg, po administered daily for 3 successive days measured after 24 hrs of last dose; format: functional
[4] = test system: HepG2; experiment: Anticoagulant activity in human HepG2 cells assessed as accumulation of des-gamma carboxyprothrombin at 10 uM after 24 hrs by ELISA relative to warfarin; format: functional
[5] = test system: HepG2; experiment: Anticoagulant activity in human HepG2 cells assessed as accumulation of des-gamma carboxyprothrombin at 30 uM after 24 hrs by ELISA relative to warfarin; format: functional
[6] = test system: HepG2; experiment: Anticoagulant activity in human HepG2 cells assessed as accumulation of des-gamma carboxyprothrombin at 30 uM after 24 hrs by ELISA; format: functional, cell-based
[7] = test system: HepG2; experiment: Anticoagulant activity in human HepG2 cells assessed as accumulation of des-gamma carboxyprothrombin at 1.1 uM after 24 hrs by ELISA relative to warfarin; format: functional, cell-based
[8] = test system: HepG2; experiment: Anticoagulant activity in human HepG2 cells assessed as accumulation of des-gamma carboxyprothrombin at 3.33 uM after 24 hrs by ELISA relative to warfarin; format: functional
[9] = test system: HepG2; experiment: Anticoagulant activity in human HepG2 cells assessed as accumulation of des-gamma carboxyprothrombin at 3.3 uM after 24 hrs by ELISA; format: functional, cell-based
[10] = test system: HepG2; experiment: Anticoagulant activity in human HepG2 cells assessed as accumulation of des-gamma carboxyprothrombin after 24 hrs by ELISA; format: functional, cell-based

| Structure (SMILES) | Time [1] [s] | Time [3] [min] | Activity [4] | Activity [5] [%] | Activity [6] | also measured |
| --- | --- | --- | --- | --- | --- | --- |
| O=c1oc2ccccc2c(O)c1C1=NN(c2ccccc2)C(c2cccnc2)C1 (stereo not given) | 22.5 | 0.827 | 8.4% | 8.7 |  | LD50 at 3 days [2]: 1790 mg/kg |
| COc1cc(-c2cc(-c3c(O)c4ccccc4oc3=O)[nH]c(=O)c2C#N)cc(OC)c1OC | 15.67 | 0.192 |  |  | inactive |  |
| COc1cc(C2CC(c3c(O)c4ccccc4oc3=O)=NN2)cc(OC)c1OC (stereo not given) |  |  |  |  | inactive |  |
| CC(=O)N1N=C(c2c(O)c3ccccc3oc2=O)CC1c1cccnc1 (stereo not given) | 20.83 | 3.373 |  |  |  | Activity [7]: inactive; Activity [8]: 11.45% |
| COc1cc(C2CC(c3c(O)c4ccccc4oc3=O)=NN2c2ccccc2)cc(OC)c1OC (stereo not given) |  |  |  |  |  | Activity [9]: inactive |
| O=c1oc2ccccc2c(O)c1C1=NC(S)=NC(c2cccnc2)C1 (stereo not given) |  |  | inactive | 8 |  |  |
| COc1cc(-c2cc(-c3c(O)c4ccccc4oc3=O)nc(N)c2C#N)cc(OC)c1OC | 9.5 | 0.193 |  |  |  |  |
| COc1cc(C2CC(c3c(O)c4ccccc4oc3=O)=NC(S)=N2)cc(OC)c1OC (stereo not given) | 15.83 | 0.173 | 5.2% | 13 | Active |  |
| COc1ccc(C2CC(c3c(O)c4ccccc4oc3=O)=NN2C(=S)Nc2ccccc2)cc1 (stereo not given) |  |  |  |  | inactive |  |
| N#Cc1c(-c2ccco2)cc(-c2c(O)c3ccccc3oc2=O)[nH]c1=O |  |  | 10% | 8.8 |  |  |
| COc1cc(C2CC(c3c(O)c4ccccc4oc3=O)=NN2C(=S)Nc2ccccc2)cc(OC)c1OC (stereo not given) |  |  |  |  |  | Activity [9]: inactive |
| COc1ccc(C2CC(c3c(O)c4ccccc4oc3=O)=NN2)cc1 (stereo not given) |  |  | 17.76% | 17.3 | Active |  |
| N#Cc1c(-c2cccnc2)cc(-c2c(O)c3ccccc3oc2=O)[nH]c1=O |  |  | 10% |  |  | Activity [8]: inactive |
| O=c1oc2ccccc2c(O)c1C1=NN(C(=S)Nc2ccccc2)C(c2cccnc2)C1 (stereo not given) | 12.17 | 3.505 | 19.3% | 19.4 | Active |  |
| NC(=S)N1N=C(c2c(O)c3ccccc3oc2=O)CC1c1cccnc1 (stereo not given) | 16.67 | 4.017 | 9.1% | 11.2 | Active |  |
| CC(=O)CC(c1ccccc1)c1c(O)c2ccccc2oc1=O (stereo not given) [WARFARIN] | 18.17 | 4.445 |  |  |  | Activity [10]: Dose-dependent effect; LD50 at 3 days [2]: 760 mg/kg |
| O=c1oc2ccccc2c(O)c1C1=NNC(c2cccnc2)C1 (stereo not given) | 17.67 | 0.53 |  |  | inactive |  |
| N#Cc1c(-c2ccco2)cc(-c2c(O)c3ccccc3oc2=O)nc1N |  |  | 7.4% | 10 | Active |  |
| COc1ccc(C2CC(c3c(O)c4ccccc4oc3=O)=NN2C(N)=S)cc1 (stereo not given) |  |  | 13.7% | 18.1 | Active |  |
